According to patent publication US5776944A, “7-(4-aminomethyl-3-methyloxyiminopyrroplidin-1-yl)-1-cyclopropyl-6-flu oro-4-oxo-1,4-dihydro-1,8-naphthyridine-3-carboxylic acid and the process for the preparation thereof” (LG Chemical Ltd., priority 1994, dated 1998):
Values after ≈ are worked out from the molar mass of the structure shown. Where two headings read alike, the source gives them in different places.

Experiments:
Type in all cases: cell-based
[1] = test system: Escherichia coli TEM3 3455E; assay: microbe, parasite or virus in culture; conditions: TEM33455E, 18 h, read-out: Minimum Inhibitory Concentration
[2] = test system: Acinetobacter calcoaceticus 15473; assay: In vitro antibacterial activity (MIC, agar dilution), Biological Example 1; conditions: read-out: Minimum Inhibitory Concentration
[3] = test system: Staphylococcus aureus 6538p; assay: as above; conditions: 18 h, Table 25, read-out: Minimum Inhibitory Concentration
[4] = test system: Escherichia coli TEM9 2639E; assay: microbe, parasite or virus in culture; conditions: TEM92639E, 18 h, read-out: Minimum Inhibitory Concentration
Escherichia coli 10536 = assay: In vitro antibacterial activity (MIC, agar dilution), Biological Example 1; conditions: read-out: Minimum Inhibitory Concentration
[5] = test system: Enterobacter cloacae 1194E; assay: microbe, parasite or virus in culture; conditions: 18 h, read-out: Minimum Inhibitory Concentration
[6] = test system: Staphylococcus aureus 241; assay: In vitro antibacterial activity (MIC, agar dilution), Biological Example 1; conditions: 18 h; Staphylococcus aureus 241, Table 25; read-out: Minimum Inhibitory Concentration
Bacillus subtilis 6633 = assay: as above; conditions: 18 h; Bacillus subtilis 6633, Table 25; read-out: Minimum Inhibitory Concentration
Micrococcus luteus 9341 = assay: as above; conditions: 18 h; Micrococcus luteus 9341, Table 25; read-out: Minimum Inhibitory Concentration
[7] = test system: Staphylococcus epidermidis 178; assay: as above; conditions: 18 h; Staphylococcus epidermidis 178, Table 25; read-out: Minimum Inhibitory Concentration
[8] = test system: Salmonella typimurium 14028; assay: as above; conditions: 18 h; Salmonella typimurium 14028, Table 25; read-out: Minimum Inhibitory Concentration
[9] = test system: Staphylococcus epidermidis 887E; assay: as above; conditions: 18 h, Table 25, read-out: Minimum Inhibitory Concentration
Escherichia coli 3190Y = assay: as above; conditions: 18 h, Table 25, read-out: Minimum Inhibitory Concentration
[10] = test system: Klebsiella aerogenes 1082E; assay: as above; conditions: 18 h, Table 25, read-out: Minimum Inhibitory Concentration
[11] = test system: Staphylococcus aureus giorgio; assay: as above; conditions: 18 h, Table 25, read-out: Minimum Inhibitory Concentration
[12] = test system: Escherichia coli TEM5 3739E; assay: microbe, parasite or virus in culture; conditions: TEM53739E, 18 h, read-out: Minimum Inhibitory Concentration
Staphylococcus aureus 77 = assay: In vitro antibacterial activity (MIC, agar dilution), Biological Example 1; conditions: 18 h; Staphylococcus aureus 77, Table 25; read-out: Minimum Inhibitory Concentration
Escherichia coli 851E = assay: as above; conditions: 18 h, Table 25, read-out: Minimum Inhibitory Concentration
Enterobacter cloacae P99 = assay: microbe, parasite or virus in culture; conditions: P99, 18 h, read-out: Minimum Inhibitory Concentration
[13] = test system: Citrobacter diversus 2046E; assay: In vitro antibacterial activity (MIC, agar dilution), Biological Example 1; conditions: Citrobacter koseri, 18 h, Table 25, read-out: Minimum Inhibitory Concentration
[14] = test system: Streptococcus faecalis 29212; assay: as above; conditions: Enterococcus faecalis, 18 h; Streptococcus faecalis 29212, Table 25; read-out: Minimum Inhibitory Concentration
[15] = test system: Pseudomonas aeruginosa 1912E; assay: as above; conditions: 18 h, read-out: Minimum Inhibitory Concentration
[16] = test system: Klebsiella aerogenes 1976E; assay: as above; conditions: 18 h, Table 25, read-out: Minimum Inhibitory Concentration
[17] = test system: Pseudomonas aeruginosa 10145; assay: as above; conditions: 18 h; Pseudomonas aeruginosa 10145, Table 25; read-out: Minimum Inhibitory Concentration
[18] = 18 h, Acinetobacter calcoaceticus 15473, Table 25
[19] = 18 h, Escherichia coli 10536, Table 25
[20] = Pseudomonas aeruginosa 1912E, Table 25

| SMILES | MIC [1] | MIC [3] | MIC [4] | MIC [5] | MIC [6] | MIC (Bacillus subtilis 6633) | MIC (Micrococcus luteus 9341) | MIC [7] | MIC [8] | MIC [9] | MIC (Escherichia coli 3190Y) | MIC [10] | MIC [11] | MIC [12] | MIC (Staphylococcus aureus 77) | MIC (Escherichia coli 851E) | MIC (Enterobacter cloacae P99) | MIC [13] | MIC [14] | MIC [16] | further results |
| --- | --- | --- | --- | --- | --- | --- | --- | --- | --- | --- | --- | --- | --- | --- | --- | --- | --- | --- | --- | --- | --- |
| CC1COc2c(N3CCN(C)CC3)c(F)cc3c(=O)c(C(=O)O)cn1c23 (stereo not drawn) [OFLX, ofloxacin, reference compound] | 0.5 µg/mL (≈ 1.38 µM) | 0.25 µg/mL (≈ 0.692 µM) | 0.063 µg/mL (≈ 0.174 µM) | 0.063 µg/mL (≈ 0.174 µM) | 64 µg/mL (≈ 177 µM) | 0.063 µg/mL (≈ 0.174 µM) | 2 µg/mL (≈ 5.53 µM) | 32 µg/mL (≈ 88.6 µM) | 0.13 µg/mL (≈ 0.36 µM) | 0.25 µg/mL (≈ 0.692 µM) | 0.016 µg/mL (≈ 0.0443 µM) | 0.063 µg/mL (≈ 0.174 µM) | 0.25 µg/mL (≈ 0.692 µM) | 0.5 µg/mL (≈ 1.38 µM) | 0.25 µg/mL (≈ 0.692 µM) | 0.063 µg/mL (≈ 0.174 µM) | ≤ 0.008 µg/mL | 0.063 µg/mL (≈ 0.174 µM) | 2 µg/mL (≈ 5.53 µM) | 0.25 µg/mL (≈ 0.692 µM) | MIC [2, 18]: 0.25 µg/mL (≈ 0.692 µM); MIC (Escherichia coli 10536; [19]): 0.031 µg/mL (≈ 0.0858 µM); MIC ([15]; Pseudomonas aeruginosa, 1912E): 0.5 µg/mL (≈ 1.38 µM); MIC [17]: 2 µg/mL (≈ 5.53 µM) |
| CC(C)ON=C1CN(c2nc3c(cc2F)c(=O)c(C(=O)O)cn3C2CC2)CC1CN (stereo not drawn) [Example 97] | 0.13 µg/mL (≈ 0.311 µM) | ≤ 0.008 µg/mL | 0.031 µg/mL (≈ 0.0743 µM) | 0.063 µg/mL (≈ 0.151 µM) | 2 µg/mL (≈ 4.79 µM) | ≤ 0.008 µg/mL | 0.063 µg/mL (≈ 0.151 µM) | 1 µg/mL (≈ 2.4 µM) | 0.13 µg/mL (≈ 0.311 µM) | ≤ 0.008 µg/mL | ≤ 0.008 µg/mL | 0.13 µg/mL (≈ 0.311 µM) | ≤ 0.008 µg/mL | 0.063 µg/mL (≈ 0.151 µM) | 0.016 µg/mL (≈ 0.0383 µM) | 0.031 µg/mL (≈ 0.0743 µM) | ≤ 0.008 µg/mL | 0.063 µg/mL (≈ 0.151 µM) | 0.063 µg/mL (≈ 0.151 µM) | 0.25 µg/mL (≈ 0.599 µM) | MIC [2, 18]: 0.016 µg/mL (≈ 0.0383 µM); MIC (Escherichia coli 10536; [19]): ≤ 0.008 µg/mL; MIC [15, 20]: 1 µg/mL (≈ 2.4 µM); MIC [17]: 1 µg/mL (≈ 2.4 µM) |
| NCC1CN(c2cc3c(cc2F)c(=O)c(C(=O)O)cn3C2CC2)CC1=NOCc1ccccc1 (stereo not drawn) [Example 12, 7-(4-animomethyl-3-benzyloxyimino-pyrrolidin-1-yl)-1-cyclcopropyl-6-fluoro-1,4-dihydro-4-oxoquinoline-3-carboxylic acid] | 0.5 µg/mL (≈ 1.08 µM) | ≤ 0.008 µg/mL | 0.25 µg/mL (≈ 0.538 µM) | 0.13 µg/mL (≈ 0.28 µM) | 1 µg/mL (≈ 2.15 µM) | ≤ 0.008 µg/mL | 0.13 µg/mL (≈ 0.28 µM) | 0.5 µg/mL (≈ 1.08 µM) | 0.25 µg/mL (≈ 0.538 µM) | ≤ 0.008 µg/mL | 0.016 µg/mL (≈ 0.0344 µM) | 0.13 µg/mL (≈ 0.28 µM) | ≤ 0.008 µg/mL | 0.25 µg/mL (≈ 0.538 µM) | ≤ 0.008 µg/mL | 0.063 µg/mL (≈ 0.136 µM) | 0.063 µg/mL (≈ 0.136 µM) | 0.13 µg/mL (≈ 0.28 µM) | 0.031 µg/mL (≈ 0.0667 µM) | 1 µg/mL (≈ 2.15 µM) | MIC [2, 18]: 0.016 µg/mL (≈ 0.0344 µM); MIC (Escherichia coli 10536; [19]): ≤ 0.008 µg/mL; MIC [15, 20]: 2 µg/mL (≈ 4.31 µM); MIC [17]: 0.5 µg/mL (≈ 1.08 µM) |
| C#CCON=C1CN(c2nc3c(cc2F)c(=O)c(C(=O)O)cn3C2CC2)CC1CN (stereo not drawn) [Example 103] | 0.13 µg/mL (≈ 0.314 µM) | ≤ 0.008 µg/mL | 0.031 µg/mL (≈ 0.075 µM) | 0.016 µg/mL (≈ 0.0387 µM) | 4 µg/mL (≈ 9.68 µM) | ≤ 0.008 µg/mL | 0.13 µg/mL (≈ 0.314 µM) | 4 µg/mL (≈ 9.68 µM) | 0.031 µg/mL (≈ 0.075 µM) | ≤ 0.008 µg/mL | ≤ 0.008 µg/mL | 0.031 µg/mL (≈ 0.075 µM) | ≤ 0.008 µg/mL | 0.063 µg/mL (≈ 0.152 µM) | ≤ 0.008 µg/mL | ≤ 0.008 µg/mL | ≤ 0.008 µg/mL | 0.13 µg/mL (≈ 0.314 µM) | 0.031 µg/mL (≈ 0.075 µM) | 0.063 µg/mL (≈ 0.152 µM) | MIC [2, 18]: 0.031 µg/mL (≈ 0.075 µM); MIC (Escherichia coli 10536; [19]): ≤ 0.008 µg/mL; MIC [15, 20]: 0.5 µg/mL (≈ 1.21 µM); MIC [17]: 0.5 µg/mL (≈ 1.21 µM) |
| CON=C1CN(c2nc3c(cc2F)c(=O)c(C(=O)O)cn3C2CC2)CC1CN (stereo not drawn) [Example 180, 7-(4-aminomethyl-3-methoxyiminonyrrolidin-1-yl)-1-cyclopropyl-6-fluoro-4-oxo-1,4-dihydro[1,8]naphthyridine-3-carboxylic acid] | 0.25 µg/mL (≈ 0.642 µM) | ≤ 0.008 µg/mL | 0.031 µg/mL (≈ 0.0796 µM) | 0.031 µg/mL (≈ 0.0796 µM) | 2 µg/mL (≈ 5.14 µM) | ≤ 0.008 µg/mL | 0.13 µg/mL (≈ 0.334 µM) | 2 µg/mL (≈ 5.14 µM) | 0.031 µg/mL (≈ 0.0796 µM) | ≤ 0.008 µg/mL | ≤ 0.008 µg/mL | 0.016 µg/mL (≈ 0.0411 µM) | ≤ 0.008 µg/mL | 0.13 µg/mL (≈ 0.334 µM) | ≤ 0.008 µg/mL | ≤ 0.008 µg/mL | ≤ 0.008 µg/mL | 0.016 µg/mL (≈ 0.0411 µM) | 0.063 µg/mL (≈ 0.162 µM) | 0.13 µg/mL (≈ 0.334 µM) | MIC ([2]; Acinetobacter calcoaceticus, 15473, 18 h): 0.0634 µg/mL (≈ 0.163 µM); MIC (Escherichia coli 10536; Escherichia coli, 10536, 18 h): ≤ 0.008 µg/mL; MIC ([15]; Pseudomonas aeruginosa, 1912E): 0.25 µg/mL (≈ 0.642 µM); MIC [17]: 0.25 µg/mL (≈ 0.642 µM) |
